20 molecules from patent publication US10543212B2, “Substituted amines for treating cardiac diseases” (Cardurion Pharmaceuticals, LLC, priority 2017, dated 2020) can be followed below.

SMILES strings stand for the structures. A value given as a limit tells only on which side of the number the result lay.

T1 sequence (Q13557 1-478 isoform Q13557-12): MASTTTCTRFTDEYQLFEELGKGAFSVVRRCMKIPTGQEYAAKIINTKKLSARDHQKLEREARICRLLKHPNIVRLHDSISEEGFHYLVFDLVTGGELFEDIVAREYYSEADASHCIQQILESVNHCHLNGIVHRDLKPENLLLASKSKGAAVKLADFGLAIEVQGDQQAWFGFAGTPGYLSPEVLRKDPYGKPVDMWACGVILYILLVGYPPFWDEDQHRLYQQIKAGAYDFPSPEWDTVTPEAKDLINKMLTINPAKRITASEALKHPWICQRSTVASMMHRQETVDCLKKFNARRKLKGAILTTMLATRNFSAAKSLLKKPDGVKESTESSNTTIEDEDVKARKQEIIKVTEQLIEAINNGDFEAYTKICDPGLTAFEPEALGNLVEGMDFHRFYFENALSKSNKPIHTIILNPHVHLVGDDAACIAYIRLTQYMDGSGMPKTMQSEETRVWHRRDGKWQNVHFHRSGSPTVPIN

The assay has as its target T1, Full-length, GST-tagged, human CaMKIIδ (Homo sapiens, UniProt Q13557).
T1 construct: Full-Length, Glutathione-S-Transferase(GST)-Tagged, Human CaMKIIδ was purchased from Carna Biosciences; purchased Carna Biosciences 02-111
The assay can be described thus: CaMKIIδ binding assay (TR-FRET with BODIPY-labeled probe ligand). Conditions: Table 2; activity class for CaMKIIδ. The method, boiled down:
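Compounds were tested as 4-fold, eight-point series for 1 hr at room temperature, and IC50 was obtained by logistic fitting against a 3 μM parent-compound control. Signal came from displacement of a 300 nM BODIPY ligand from 0.5 nM GST-CaMKIIδ, detected via Tb-anti-GST in calmodulin/Ca2+ (pH 7.6).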
On to `C[C@@H](Cn1cnnn1)Oc1cc(-c2cnc(Nc3cn(CC4CCCCO4)nc3C(F)(F)F)nc2)ccc1Cl` (stereo partly drawn) [Example 712, 5-(3-(((S)-1-(1H-tetrazol-1-yl)propan-2-yl)oxy)-4-chlorophenyl)-N-(1-((tetrahydro-2H-pyran-2-yl)methyl)-3-(trifluoromethyl)-1H-pyrazol-4-yl)pyrimidin-2-amine], for which the IC50 was 10 to 100 nM.
With `CC(C(N)=O)n1cc(Nc2ncc(-c3ccc(Cl)c(O[C@@H](C)Cn4cnnn4)c3)cn2)c(C(F)(F)F)n1` (stereo partly drawn) [Example 713, 2-(4-((5-(3-(((S)-1-(1H-tetrazol-1-yl)propan-2-yl)oxy)-4-chlorophenyl)pyrimidin-2-yl)amino)-3-(trifluoromethyl)-1H-pyrazol-1-yl)propanamide], the IC50 is below 10 nM.
For the molecule `C[C@@H](Cn1cnnn1)Oc1cc(-c2cnc(Nc3ccn(Cc4ccccc4)n3)nc2)ccc1Cl` [Example 714, (S)-5-(3-((1-(1H-tetrazol-1-yl)propan-2-yl)oxy)-4-chlorophenyl)-N-(1-benzyl-1H-pyrazol-3-yl)pyrimidin-2-amine], the IC50 lay in the range of 10 to 100 nM.
The value for `C[C@@H](Cn1cnnn1)Oc1cc(-c2cnc(Nc3ccn(C(C)(C)C)n3)nc2)ccc1Cl` [Example 715, (S)-5-(3-((1-(1H-tetrazol-1-yl)propan-2-yl)oxy)-4-chlorophenyl)-N-(1-(tert-butyl)-1H-pyrazol-3-yl)pyrimidin-2-amine] was at least 100 nM.
For the molecule `CC(C#N)n1cc(Nc2ncc(-c3ccc(Cl)c(O[C@@H](C)Cn4cnnn4)c3)cn2)c(C(F)(F)F)n1` (stereo partly drawn) [Example 716, 2-(4-((5-(3-(((S)-1-(1H-tetrazol-1-yl)propan-2-yl)oxy)-4-chlorophenyl)pyrimidin-2-yl)amino)-3-(trifluoromethyl)-1H-pyrazol-1-yl)propanenitrile], the 50% inhibitory concentration (IC50) fell in the range of 10 to 100 nM.
In the case of `C[C@@H](Cn1cnnn1)Oc1cc(-c2cnc(Nc3cn(C4C[C@@H]5CC[C@H]4C5)nc3C(F)(F)F)nc2)ccc1Cl` (stereo partly drawn) [Example 717, 5-(3-(((S)-1-(1H-tetrazol-1-yl)propan-2-yl)oxy)-4-chlorophenyl)-N-(1-((1S,4R)-bicyclo[2.2.1]heptan-2-yl)-3-(trifluoromethyl)-1H-pyrazol-4-yl)pyrimidin-2-amine] it was at least 100 nM.
Consider `C[C@@H](Cn1cnnn1)Oc1cc(-c2cnc(Nc3cn(CCCO)nc3C(F)(F)F)nc2)ccc1Cl` [Example 718, (S)-3-(4-((5-(3-((1-(1H-tetrazol-1-yl)propan-2-yl)oxy)-4-chlorophenyl)pyrimidin-2-yl)amino)-3-(trifluoromethyl)-1H-pyrazol-1-yl)propan-1-ol], for which the IC50 lay in the range of 10 to 100 nM.
Consider `C[C@@H](Cn1cnnn1)Oc1cc(-c2cnc(Nc3cc(-c4ccccc4)nn3C)nc2)ccc1Cl` [Example 719, (S)-5-(3-((1-(1H-tetrazol-1-yl)propan-2-yl)oxy)-4-chlorophenyl)-N-(1-methyl-3-phenyl-1H-pyrazol-5-yl)pyrimidin-2-amine], for which the IC50 lay within 10 to 100 nM.
In turn, `C[C@@H](Cn1cnnn1)Oc1cc(-c2cnc(Nc3cc(C(F)(F)F)nn3C)nc2)ccc1Cl` [Example 720, (S)-5-(3-((1-(1H-tetrazol-1-yl)propan-2-yl)oxy)-4-chlorophenyl)-N-(1-methyl-3-(trifluoromethyl)-1H-pyrazol-5-yl)pyrimidin-2-amine] showed an IC50 of 10 to 100 nM.
In the case of `C[C@@H](Cn1cnnn1)Oc1cc(-c2cnc(Nc3cn([C@@H]4Cc5ccccc5[C@@H]4O)nc3C(F)(F)F)nc2)ccc1Cl` [Example 721, (1S,2R)-2-(4-((5-(3-(((S)-1-(1H-tetrazol-1-yl)propan-2-yl)oxy)-4-chlorophenyl)pyrimidin-2-yl)amino)-3-(trifluoromethyl)-1H-pyrazol-1-yl)-2,3-dihydro-1H-inden-1-ol], the IC50 lay within 10 to 100 nM.
`C[C@@H](Cn1cnnn1)Oc1cc(-c2cnc(Nc3cn(Cc4n[nH]c(=O)[nH]4)nc3C(F)(F)F)nc2)ccc1Cl` [Example 722, (S)-5-((4-((5-(3-((1-(1H-tetrazol-1-yl)propan-2-yl)oxy)-4-chlorophenyl)pyrimidin-2-yl)amino)-3-(trifluoromethyl)-1H-pyrazol-1-yl)methyl)-2,4-dihydro-3H-1,2,4-triazol-3-one] showed an IC50 of at least 100 nM.
Consider `CC(C)n1ccc(Nc2ncc(-c3ccc(Cl)c(O[C@@H](C)Cn4cnnn4)c3)cn2)n1` [Example 723, (S)-5-(3-((1-(1H-tetrazol-1-yl)propan-2-yl)oxy)-4-chlorophenyl)-N-(1-isopropyl-1H-pyrazol-3-yl)pyrimidin-2-amine], for which the IC50 lay in the range of 10 to 100 nM.
As for `C[C@@H](Cn1cnnn1)Oc1cc(-c2cnc(Nc3cn(C4Cc5ccccc5C4)nc3C(F)(F)F)nc2)ccc1Cl` [Example 724, (S)-5-(3-((1-(1H-tetrazol-1-yl)propan-2-yl)oxy)-4-chlorophenyl)-N-(1-(2,3-dihydro-1H-inden-2-yl)-3-(trifluoromethyl)-1H-pyrazol-4-yl)pyrimidin-2-amine], the IC50 is at least 100 nM.
In turn, `C[C@@H](Cn1cnnn1)Oc1cc(-c2cnc(Nc3cnn(CC4CC4)c3)nc2)ccc1Cl` [Example 725, (S)-5-(3-((1-(1H-tetrazol-1-yl)propan-2-yl)oxy)-4-chlorophenyl)-N-(1-(cyclopropylmethyl)-1H-pyrazol-4-yl)pyrimidin-2-amine] came in with a 50% inhibitory concentration (IC50) of 10 to 100 nM.
Turning to `C#CCn1cc(Nc2ncc(-c3ccc(Cl)c(O[C@@H](C)Cn4cnnn4)c3)cn2)c(C(F)(F)F)n1` [Example 726, (S)-5-(3-((1-(1H-tetrazol-1-yl)propan-2-yl)oxy)-4-chlorophenyl)-N-(1-(prop-2-yn-1-yl)-3-(trifluoromethyl)-1H-pyrazol-4-yl)pyrimidin-2-amine], the IC50 was 10 to 100 nM.
`C[C@@H](Cn1cnnn1)Oc1cc(-c2cnc(Nc3cn(CCOC(F)(F)F)nc3C(F)(F)F)nc2)ccc1Cl` [Example 727, (S)-5-(3-((1-(1H-tetrazol-1-yl)propan-2-yl)oxy)-4-chlorophenyl)-N-(1-(2-(trifluoromethoxy)ethyl)-3-(trifluoromethyl)-1H-pyrazol-4-yl)pyrimidin-2-amine] came in with a concentration for half-maximal inhibition (IC50) of 10 to 100 nM.
With `C[C@@H](Cn1cnnn1)Oc1cc(-c2cnc(Nc3cn(CC(O)C(F)(F)F)nc3C(F)(F)F)nc2)ccc1Cl` (stereo partly drawn) [Example 728, 3-(4-((5-(3-(((S)-1-(1H-tetrazol-1-yl)propan-2-yl)oxy)-4-chlorophenyl)pyrimidin-2-yl)amino)-3-(trifluoromethyl)-1H-pyrazol-1-yl)-1,1,1-trifluoropropan-2-ol], the IC50 lay within 10 to 100 nM.
With `C[C@@H](Cn1cnnn1)Oc1cc(-c2cnc(Nc3cc(-c4cccs4)nn3C)nc2)ccc1Cl` [Example 729, (S)-5-(3-((1-(1H-tetrazol-1-yl)propan-2-yl)oxy)-4-chlorophenyl)-N-(1-methyl-3-(thiophen-2-yl)-1H-pyrazol-5-yl)pyrimidin-2-amine], the IC50 was in the range of 10 to 100 nM.
The value for `C[C@@H](CO)Cn1cc(Nc2ncc(-c3ccc(Cl)c(O[C@@H](C)Cn4cnnn4)c3)cn2)c(C(F)(F)F)n1` [Example 730, (R)-3-(4-((5-(3-(((S)-1-(1H-tetrazol-1-yl)propan-2-yl)oxy)-4-chlorophenyl)pyrimidin-2-yl)amino)-3-(trifluoromethyl)-1H-pyrazol-1-yl)-2-methylpropan-1-ol] was 10 to 100 nM.
`Cc1c(Nc2ncc(-c3ccc(Cl)c(O[C@@H](C)Cn4cnnn4)c3)cn2)cnn1C` [Example 731, (S)-5-(3-((1-(1H-tetrazol-1-yl)propan-2-yl)oxy)-4-chlorophenyl)-N-(1,5-dimethyl-1H-pyrazol-4-yl)pyrimidin-2-amine] displayed a half-inhibitory concentration (IC50) of 10 to 100 nM.

The IC50 is the concentration that gives 50% inhibition. Read a high IC50 as weaker potency in that assay.
